≈ marks a conversion by molar mass, not a printed value.
What was measured:
[1] = test system: C. freundii GN346; assay: Test 1: Anti-Microbial Activities (MIC); format: cell-based; conditions: Sensitivity Disk agar-N+5% Horse blood, inoculants 10^6 CFU/ml; for MIC: Citrobacter freundii, read-out: minimum inhibiting concentrations (MIC)
Protocol: (§1) The minimum inhibiting concentrations (MIC, μg/ml) of the compounds according to the present invention to various pathogenic bacteria was measured in accordance with the method described in CHEMOTHERAPY, vol. 16, No. 1,99, 1968. The culture medium for measurement was Sensitivity Disk agar-N+5% Horse blood, and the amount of inoculants was 10^6 CFU/ml.

[2] = test system: E. coli NIHJ JC-2; assay: Test 1: Anti-Microbial Activities (MIC); format: cell-based; conditions: inoculants 10^6 CFU/ml; for MIC: Escherichia coli, NIHJJC2, Sensitivity Disk agar-N+5% Horse blood, read-out: minimum inhibiting concentrations (MIC)
Protocol: as §1

[3] = test system: E. faecalis W-73; assay: Test 1: Anti-Microbial Activities (MIC); format: cell-based; conditions: inoculants 10^6 CFU/ml; for MIC: Enterococcus faecalis, W73, Sensitivity Disk agar-N+5% Horse blood, read-out: minimum inhibiting concentrations (MIC)
Protocol: as §1

[4] = test system: E. hirae ATCC8043; assay: Test 1: Anti-Microbial Activities (MIC); format: cell-based; conditions: Sensitivity Disk agar-N+5% Horse blood, inoculants 10^6 CFU/ml; for MIC: Enterococcus hirae, read-out: minimum inhibiting concentrations (MIC)
Protocol: as §1

[5] = test system: H. influenzae PRC2; assay: Test 1: Anti-Microbial Activities (MIC); format: cell-based; conditions: Sensitivity Disk agar-N+5% Horse blood, inoculants 10^6 CFU/ml; for MIC: Haemophilus influenzae, read-out: minimum inhibiting concentrations (MIC)
Protocol: as §1

[6] = test system: H. influenzae PRC44; assay: Test 1: Anti-Microbial Activities (MIC); format: cell-based; conditions: Sensitivity Disk agar-N+5% Horse blood, inoculants 10^6 CFU/ml; for MIC: Haemophilus influenzae, read-out: minimum inhibiting concentrations (MIC)
Protocol: as §1

[7] = test system: K. pneumoniae PCI602; assay: Test 1: Anti-Microbial Activities (MIC); format: cell-based; conditions: Sensitivity Disk agar-N+5% Horse blood, inoculants 10^6 CFU/ml; for MIC: Klebsiella pneumoniae, read-out: minimum inhibiting concentrations (MIC)
Protocol: as §1

[8] = test system: M. catarrhalis W-0500; assay: Test 1: Anti-Microbial Activities (MIC); format: cell-based; conditions: inoculants 10^6 CFU/ml; for MIC: Moraxella catarrhalis, W0500, Sensitivity Disk agar-N+5% Horse blood, read-out: minimum inhibiting concentrations (MIC)
Protocol: as §1

[9] = test system: P. vulgaris GN7919; assay: Test 1: Anti-Microbial Activities (MIC); format: cell-based; conditions: Sensitivity Disk agar-N+5% Horse blood, inoculants 10^6 CFU/ml; for MIC: Proteus vulgaris, read-out: minimum inhibiting concentrations (MIC)
Protocol: as §1

[10] = test system: S. aureus 209P JC-1; assay: Test 1: Anti-Microbial Activities (MIC); format: cell-based; conditions: Sensitivity Disk agar-N+5% Horse blood, inoculants 10^6 CFU/ml; for MIC: Staphylococcus aureus, read-out: minimum inhibiting concentrations (MIC)
Protocol: as §1

[11] = test system: S. aureus M126; assay: Test 1: Anti-Microbial Activities (MIC); format: cell-based; conditions: S. aureus M126, methicillin-hyperresistant strain (MRSA), Sensitivity Disk agar-N+5% Horse blood, inoculants 10^6 CFU/ml; for MIC: Staphylococcus aureus, read-out: minimum inhibiting concentrations (MIC)
Protocol: as §1

[12] = test system: S. epidermidis ATCC14990; assay: Test 1: Anti-Microbial Activities (MIC); format: cell-based; conditions: Sensitivity Disk agar-N+5% Horse blood, inoculants 10^6 CFU/ml; for MIC: Staphylococcus epidermidis, read-out: minimum inhibiting concentrations (MIC)
Protocol: as §1

[13] = test system: S. pneumoniae PRC9; assay: Test 1: Anti-Microbial Activities (MIC); format: cell-based; conditions: S. pneumoniae PRC9, penicillin-hyperresistant strain (PRSP), Sensitivity Disk agar-N+5% Horse blood, inoculants 10^6 CFU/ml; for MIC: Streptococcus pneumoniae, read-out: minimum inhibiting concentrations (MIC)
Protocol: as §1

[14] = molecular target: T1, mouse DHP-I (Mus musculus, UniProt P31428); assay: Test 2: stability against DHP-I (mouse); conditions: partly purified Mouse DHP-I; 100 μg (titer)/ml; 37° C., 3 hours; HPLC
T1 sequence (P31428 17-384): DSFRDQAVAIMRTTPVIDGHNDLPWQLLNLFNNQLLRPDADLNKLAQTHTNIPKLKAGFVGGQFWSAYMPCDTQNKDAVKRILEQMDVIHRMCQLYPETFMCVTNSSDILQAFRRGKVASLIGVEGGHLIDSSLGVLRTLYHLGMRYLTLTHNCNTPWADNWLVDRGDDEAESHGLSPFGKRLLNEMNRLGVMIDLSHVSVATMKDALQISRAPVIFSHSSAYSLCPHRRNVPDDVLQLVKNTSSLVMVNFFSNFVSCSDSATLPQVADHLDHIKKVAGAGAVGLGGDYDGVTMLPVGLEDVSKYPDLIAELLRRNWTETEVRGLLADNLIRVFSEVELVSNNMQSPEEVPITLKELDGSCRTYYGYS

[15] = molecular target: T2, porcine renal DHP-I (Sus scrofa, UniProt P22412); assay: Test 2: stability against DHP-I (porcine); conditions: partly purified Porcine DHP-I, 100 μg (titer)/ml, 37° C., HPLC
T2 sequence (P22412 17-384): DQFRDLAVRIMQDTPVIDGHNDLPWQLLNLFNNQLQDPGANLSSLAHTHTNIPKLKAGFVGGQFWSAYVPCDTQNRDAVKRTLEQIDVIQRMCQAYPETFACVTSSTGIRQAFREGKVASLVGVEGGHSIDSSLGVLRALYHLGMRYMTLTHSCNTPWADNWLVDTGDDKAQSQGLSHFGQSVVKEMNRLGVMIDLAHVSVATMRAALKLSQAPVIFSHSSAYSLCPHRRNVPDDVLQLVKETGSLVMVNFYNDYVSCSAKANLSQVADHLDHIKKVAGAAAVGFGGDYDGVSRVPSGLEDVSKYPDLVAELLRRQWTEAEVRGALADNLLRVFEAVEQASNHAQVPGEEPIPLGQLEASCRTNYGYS

[16] = Sensitivity Disk agar-N+5% Horse blood

Compound | MIC [1] [µg/mL] | MIC [2] [µg/mL] | MIC [3] [µg/mL] | MIC [4] [µg/mL] | MIC [5] [µg/mL] | MIC [6] [µg/mL] | MIC [7] [µg/mL] | MIC [8] [µg/mL] | MIC [9] [µg/mL] | MIC [10] [µg/mL] | MIC [11] [µg/mL] | MIC [12] [µg/mL] | MIC [13] [µg/mL] | residual amounts (%) after 3 hours [14] [%] | residual amounts (%) after 3 hours [15] [%] | also measured
(1R,5S,6S)-6-((1R)-1-hydroxyethyl)-1-methyl-2-[(3S,5S)-5-(6-methylimidazo[5,1-b]thiazolium-2-yl)methylpyrrolidin-3-yl]thiocarbapen-2-em-3-carboxylic acid iodide [Compound B, reference compound] | – | – | – | – | – | – | – | – | – | – | – | – | – | – | – | minimum inhibiting concentrations (MIC) [1]: 0.10 µg/mL; minimum inhibiting concentrations (MIC) [2, 16]: 0.05 µg/mL; minimum inhibiting concentrations (MIC) [3, 16]: 3.13 µg/mL; minimum inhibiting concentrations (MIC) [4]: 1.56 µg/mL; minimum inhibiting concentrations (MIC) [5]: 0.10 µg/mL; minimum inhibiting concentrations (MIC) [6]: 0.78 µg/mL; minimum inhibiting concentrations (MIC) [7]: 0.10 µg/mL; minimum inhibiting concentrations (MIC) [8, 16]: <0.025 µg/mL; minimum inhibiting concentrations (MIC) [9]: 0.10 µg/mL; minimum inhibiting concentrations (MIC) [10]: <0.025 µg/mL; minimum inhibiting concentrations (MIC) [11]: 6.25 µg/mL; minimum inhibiting concentrations (MIC) [12]: 0.05 µg/mL; minimum inhibiting concentrations (MIC) [13]: 0.39 µg/mL
C[C@@H](O)[C@H]1C(=O)N2C(C(=O)O)=C(SCCN=CN)C[C@H]12 [Compound A, imipenem, reference compound] | 0.2 (≈ 0.668 µM) | 0.1 (≈ 0.334 µM) | 0.78 (≈ 2.61 µM) | 0.78 (≈ 2.61 µM) | 0.78 (≈ 2.61 µM) | 12.5 (≈ 41.8 µM) | 0.2 (≈ 0.668 µM) | 0.05 (≈ 0.167 µM) | 0.1 (≈ 0.334 µM) | < 0.025 | 25 (≈ 83.5 µM) | < 0.025 | 0.2 (≈ 0.668 µM) | 14 | <0.3 | –
C[C@@H](O)[C@H]1C(=O)N2C(C(=O)[O-])=C(c3cn4cnc(C(=O)CO)c4s3)[C@H](C)[C@H]12.[Na+] [Example 71, Sodium (1S,5R,6S)-2-(7-Hydroxyacetylimidazo[5,1-b]thiazol-2-yl)-6-((1R)-1-hydroxyethyl)-1-methyl-1-carbapen-2-em-3-carboxylate] | 0.39 | < 0.025 | 0.39 | 0.39 | < 0.025 | 0.05 | < 0.025 | < 0.025 | < 0.025 | < 0.025 | 3.13 | < 0.025 | 0.1 | <0.1 | 33 | –
C[C@@H](O)[C@H]1C(=O)N2C(C(=O)[O-])=C(c3cn4cnc([S+](C)[O-])c4s3)[C@H](C)[C@H]12.[Na+] (stereo partly drawn) [Example 26, Sodium (1S,5R,6S)-6-((1R)-1-Hydroxyethyl)-2-(7-methanesulfinylimidazo[5,1-b]thiazol-2-yl)-1-methyl-1-carbapen-2-em-3-carboxylate] | 1.56 | 0.05 | 0.39 | 0.78 | < 0.025 | 0.05 | 0.1 | 0.05 | 0.2 | < 0.025 | 6.25 | < 0.025 | 0.1 | 11 | 44 | –
